The values below come from PubChem BioAssay (NCI).

Among the test systems are A498 renal; A549 NSCLC; ACHN renal; CAKI-1 renal; NCI/ADR-RES ovarian; OVCAR-4 ovarian; PC-3 prostate; SK-MEL-5 melanoma; UACC-62 melanoma.
Assay in all cases: NCI tumour cell line growth inhibition, 48 h

Where “and” joins values, the source holds several entries; their conditions need not be identical. Equal entries are not always repeated.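 Protocol summary: plate cells (96-well), add compound at 5 concentrations, incubate 48 h, interpolate endpoints linearly. GI50 is the concentration that inhibits growth by half. TGI marks complete inhibition of growth.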 A value given as a limit tells only on which side of the number the result lay.

Regarding `Cc1cccc2c1C/C(=C\c1cccc(C)c1C(=O)O)C2=O`, the TGI in the experiment on A498 renal, in the experiment with A549 NSCLC, with ACHN renal, with CAKI-1 renal, with NCI/ADR-RES ovarian and with OVCAR-4 ovarian was over 100 µM each time. Further, the TGI with PC-3 prostate, in the experiment on SK-MEL-5 melanoma and with UACC-62 melanoma was over 100 µM in each case.
Take `CN(C)CC(NC(NCS)C(=O)NCCNc1ccc(NCCNC(=O)C(NCS)NC(CN(C)C)OCCl)c2c1C(=O)c1c(O)ccc(O)c1C2=O)OCCl` (stereo not given): the TGI in the experiment with A498 renal is 2.76 µM; in the experiment with A549 NSCLC it was 1.54 µM; in the experiment with ACHN renal, 0.194 µM; in the experiment with CAKI-1 renal, 0.119 µM; in the experiment with NCI/ADR-RES ovarian it was 4.99 µM and 5.04 µM; in the experiment on OVCAR-4 ovarian, 2.78 µM and 1.3 µM. The TGI with PC-3 prostate was found to be 1.46 µM; in the experiment with SK-MEL-5 melanoma it was 0.94 µM; in the experiment with UACC-62 melanoma, 1.6 µM. In addition, the GI50 in the experiment on NCI/ADR-RES ovarian is 0.287 µM; with OVCAR-4 ovarian it was 0.373 µM.
As to `O=C1O[C@]2(c3ccccc3)C(c3ccccc3)=C[C@]2(C(=O)c2ccccc2)C1=O`, the TGI with A498 renal, in the experiment on A549 NSCLC, with ACHN renal, with CAKI-1 renal, in the experiment on NCI/ADR-RES ovarian and in the experiment on OVCAR-4 ovarian was over 100 µM throughout. Moreover, the TGI in the experiment with PC-3 prostate, in the experiment on SK-MEL-5 melanoma and in the experiment with UACC-62 melanoma was over 100 µM throughout.
In the case of `C[C@H](CCC1=NCCN1)[C@H]1CC[C@H]2[C@@H]3CC[C@@H]4C[C@H](O)CC[C@]4(C)[C@H]3C[C@H](O)[C@]12C`, the TGI in the experiment with A498 renal was 65.1 µM; in the experiment with ACHN renal, 30.5 µM; in the experiment on CAKI-1 renal, 43.8 µM; in the experiment with NCI/ADR-RES ovarian it was over 100 µM; in the experiment with OVCAR-4 ovarian, 33.6 µM; in the experiment with PC-3 prostate, 20.7 µM. For the same molecule, the TGI with SK-MEL-5 melanoma amounted to 24.5 µM; in the experiment on UACC-62 melanoma, 26.3 µM.
`Nc1c(S(=O)(=O)O)cc(Nc2cccc(S(=O)(=O)/C=C/S(=O)(=O)O)c2)c2c1C(=O)c1ccccc1C2=O`: the TGI in the experiment with A498 renal, with A549 NSCLC, with ACHN renal, in the experiment with CAKI-1 renal, in the experiment on NCI/ADR-RES ovarian and in the experiment with OVCAR-4 ovarian was over 100 µM in each case. Further, the TGI in the experiment with PC-3 prostate, in the experiment with SK-MEL-5 melanoma and in the experiment on UACC-62 melanoma was over 100 µM each time.
Regarding `COc1ccc2c(c1)CC[C@@H]1[C@@H]2CC[C@]2(C)C(=O)/C(=C/c3cc(OC)c(OC)c(OC)c3)C[C@@H]12`, the TGI with A498 renal was over 100 µM; in the experiment with A549 NSCLC, over 100 µM; in the experiment on ACHN renal it was 40.7 µM; with CAKI-1 renal it was 63.3 µM; in the experiment with NCI/ADR-RES ovarian, 34.6 µM; in the experiment on OVCAR-4 ovarian, over 100 µM. In addition, the TGI in the experiment with PC-3 prostate is 26.9 µM; in the experiment with SK-MEL-5 melanoma, over 100 µM; in the experiment with UACC-62 melanoma, over 100 µM.
Consider `Nc1nc2cc(CNc3ccc(C(=O)NC(CCC(=O)O)C(=O)O)cc3)ccc2nc1-c1ccccc1` (stereo not given), for which the TGI in the experiment with A498 renal, with A549 NSCLC, with ACHN renal, with CAKI-1 renal, in the experiment with NCI/ADR-RES ovarian and in the experiment with OVCAR-4 ovarian was over 10 µM throughout. Also, the TGI with PC-3 prostate, in the experiment with SK-MEL-5 melanoma and in the experiment with UACC-62 melanoma was over 10 µM each time.
`CC(C)C1=CC23CCC4C(C)(C(=O)O)CCCC4(C)C2CC1C(C(=O)O)C3C(=O)O` (stereo not given): the TGI with A498 renal, in the experiment on A549 NSCLC, in the experiment with ACHN renal, in the experiment on CAKI-1 renal, in the experiment on NCI/ADR-RES ovarian and in the experiment with OVCAR-4 ovarian was over 100 µM in each case. Further, the TGI in the experiment with PC-3 prostate, in the experiment with SK-MEL-5 melanoma and in the experiment with UACC-62 melanoma was over 100 µM throughout.
Regarding `Cc1nnc2sc(N/N=C/c3ccccc3)nn12`, the TGI with A498 renal, in the experiment with A549 NSCLC, with ACHN renal, with CAKI-1 renal, in the experiment on NCI/ADR-RES ovarian and in the experiment with OVCAR-4 ovarian was over 100 µM each time. For the same molecule, the TGI in the experiment on PC-3 prostate, with SK-MEL-5 melanoma and in the experiment on UACC-62 melanoma was over 100 µM throughout.
As to `CCCCCCCCC/C=C1\CC(CO)(COC(=O)c2ccccc2)OC1=O` (stereo not given), the TGI was 58.3 µM with A498 renal; 52.9 µM with A549 NSCLC; over 100 µM in the experiment on ACHN renal; 52.5 µM in the experiment on CAKI-1 renal; 51.9 µM in the experiment with NCI/ADR-RES ovarian; over 100 µM in the experiment with OVCAR-4 ovarian. The TGI in the experiment with PC-3 prostate was determined as 34.7 µM; in the experiment with SK-MEL-5 melanoma, 28.6 µM; in the experiment on UACC-62 melanoma, 79.4 µM.
In the case of `Cc1n(CC(=O)c2ccccc2)nc2sc(N)n[n+]12`, the TGI in the experiment on A498 renal, with A549 NSCLC, in the experiment on ACHN renal, in the experiment on CAKI-1 renal, in the experiment on NCI/ADR-RES ovarian and in the experiment on OVCAR-4 ovarian was over 100 µM in each case. Besides, the TGI was over 100 µM in the experiment with PC-3 prostate, over 100 µM in the experiment with SK-MEL-5 melanoma and 37.4 µM in the experiment with UACC-62 melanoma.
For `CN(C)CCn1c(=O)c2ccc3c4c(nn3CCN(C)C)c3ccccc3n(c1=O)c24`, the TGI in the experiment on A498 renal amounted to 1.34 µM; in the experiment with A549 NSCLC, 4.38 µM; with ACHN renal, 0.765 µM; with CAKI-1 renal it was 0.52 µM; with NCI/ADR-RES ovarian, 2.58 µM; with OVCAR-4 ovarian it was 1.71 µM. Moreover, the TGI with PC-3 prostate was 3.21 µM; in the experiment on SK-MEL-5 melanoma, 1.42 µM; in the experiment with UACC-62 melanoma, 1.34 µM.
In the case of `CCOC(=O)C(C)c1nc2cc(N3CCN(C)CC3)c(F)cc2[nH]c1=O` (stereo not given), the TGI with A498 renal, in the experiment with A549 NSCLC, in the experiment on ACHN renal, with CAKI-1 renal, in the experiment with NCI/ADR-RES ovarian and in the experiment with OVCAR-4 ovarian was over 100 µM in each case. Moreover, the TGI with PC-3 prostate, with SK-MEL-5 melanoma and in the experiment on UACC-62 melanoma was over 100 µM each time.
Take `C/C(N=Nc1nc2ccccc2o1)=C1/C=CC=CN1O`: the TGI with A498 renal was over 100 µM; in the experiment on A549 NSCLC it was over 100 µM; in the experiment with ACHN renal it was over 100 µM; with CAKI-1 renal, 29 µM; in the experiment on NCI/ADR-RES ovarian, 89.1 µM; with OVCAR-4 ovarian, over 100 µM. Also, the TGI with PC-3 prostate, in the experiment with SK-MEL-5 melanoma and in the experiment with UACC-62 melanoma was over 100 µM in each case.
Consider `COc1ccc(C2(C3c4cc(OC)c(OC)cc4CCN3C)SCCCS2)cc1O` (stereo not given), for which the TGI with A498 renal, in the experiment on A549 NSCLC, in the experiment on CAKI-1 renal, in the experiment on NCI/ADR-RES ovarian, in the experiment on OVCAR-4 ovarian and in the experiment on PC-3 prostate was over 100 µM throughout. The TGI in the experiment on SK-MEL-5 melanoma and in the experiment on UACC-62 melanoma was over 100 µM each time.
